Experimental data: patent US9700042B2, “Nanoformulation of musk-derived bioactive ingredients for nanocosmetic applications” (priority 2014, dated 2017)

System: tested microorganisms fungi and bacteria
Assay: Anti-microbial activities (disc diffusion, all test organisms)
Format: cell-based
Details: filter paper discs
Procedure: Pathogenic Fungi: Aspergillus niger, Aspergillus fumigatus, Aspergillus flavus, Fusarium oxysporum and Candida albicans were cultured on sabaroud dextrous agar media (Oxioid CM 41) at 25° C.
Pathogenic bacteria: Staphylococcus aureus and Pseudomonas aeroginosa were cultured on Mueller Hinton media (Oxioid CM 41) at 37° C.
Biological activity: Antimicrobial activities of the 3-hydroxyl p-Anisaldehyde (C8H8O3) and p-Hydroxy-acetophenone (C8H8O2) compounds were tested against the fungal species Aspergillus niger, Aspergillus fumigatus, Aspergillus flavus, Fusarium oxysporum and Candida albicans. […]
Antifungal activities: The agar disc diffusion method was used to evaluate the antifungal activities of the tested compounds (Bauer, A.W., et al., Antibiotic susceptibility testing by a standard single disk diffusion method, Amer. J. Clin. Pathol. 45:493-496 (1966)). […] The diameter of the inhibition zones were measured in millimeters after 4 days at 25±2° C. […]
Antibacterial activities: Antibacterial activities of the tested compounds were employed by used the agar disc diffusion method Hasenekoglu (1990). Suspension of the tested bacteria (10^6 CFU/μl ,O.D was measured calorimetry using spectrophotometer (Spectro, labomed, Inc.) at […]) were spread on Mueller Hinton Agar (Oxioid). […] The diameter of the inhibition zones were measured in millimeters after 24 h at 37° C. […]

## CC(=O)c1ccc(O)cc1 [p-Hydroxyacetophenone]
  Inhibition of growth of tested microorganisms (clear zones around discs): have the ability to inhibit the growth
